Measured values as given in BindingDB's records for doi:10.1016/j.bmcl.2017.05.059 (University of Mysore, 2017).

Assay: Inhibition of Vipera russelii venom sPLA2-induced hemolytic activity in human erythrocytes assessed as reduction hemoglobin release in presence of egg yolk preincubated for 5 mins followed by erythrocyte addition by spectrophotometric analysis

## COc1ccc(C2CC(c3ccco3)=Nc3ccccc3S2)cc1 (stereo unspecified)
  IC50: 21.3 µM
